The subject of experiment [1] is Legionella pneumophila. The experiment in a line: Inhibition of Legionella pneumophila recombinant PAH assessed as residual activity by […] assay using 1 mM L-Phe as substrate and 200 uM BH4 as cofactor. In general terms: Differential scanning fluorimetry follows unfolding on heating by fluorescence.
Experiment [2] in a line: Non-competitive inhibition of Legionella pneumophila recombinant PAH for enzyme-substrate complex by […] assay using BH4 as cofactor.
The nature of experiment [3]: Non-competitive inhibition of Legionella pneumophila recombinant PAH for free enzyme by […] assay using BH4 as cofactor.
Experiment [4] can be described thus: Mixed inhibition of Legionella pneumophila recombinant PAH for enzyme-substrate complex by […] assay method using L-Phe as substrate.
In experiment [5] the test system is Legionella pneumophila. The experiment in a line: Antibacterial activity against Legionella pneumophila 130b assessed as bacterial growth at 20 uM after 24 hrs by spectrometer. In kind it is functional, organism-based.
For experiment [6], the system named is Escherichia coli. The experiment in a line: Antibacterial activity against Escherichia coli XL-10 Gold assessed as slower growth rate at > 40 uM after 21 hrs. In kind it is functional, organism-based.
The subject of experiment [7] is Legionella pneumophila. Put plainly: Inhibition of PAH in Legionella pneumophila 130b lysate assessed as residual activity at 10 uM by direct detect spectrometer.
Experiment [8] concerns Escherichia coli. The experiment in a line: Antibacterial activity against Escherichia coli XL-10 Gold at <= 100 uM after 21 hrs. It counts as functional, organism-based.
Experiment [9] has as its system Legionella pneumophila. The experiment in a line: Antibacterial activity against Legionella pneumophila 130b assessed as bacterial growth at 40 uM after 24 hrs by spectrometer. It counts as functional, organism-based.
The nature of experiment [10]: Mixed inhibition of Legionella pneumophila recombinant PAH for free enzyme by […] assay using L-Phe as substrate.
For experiment [11], the system named is Legionella pneumophila. Put plainly: Antibacterial activity against Legionella pneumophila 130b assessed as bacterial growth at <= 10 uM after 24 hrs by spectrometer. It counts as functional, organism-based.
Experiment [12] has as its target T1, Phenylalanine-4-hydroxylase (Homo sapiens) (UniProt P00439).
T1 sequence (whole entry): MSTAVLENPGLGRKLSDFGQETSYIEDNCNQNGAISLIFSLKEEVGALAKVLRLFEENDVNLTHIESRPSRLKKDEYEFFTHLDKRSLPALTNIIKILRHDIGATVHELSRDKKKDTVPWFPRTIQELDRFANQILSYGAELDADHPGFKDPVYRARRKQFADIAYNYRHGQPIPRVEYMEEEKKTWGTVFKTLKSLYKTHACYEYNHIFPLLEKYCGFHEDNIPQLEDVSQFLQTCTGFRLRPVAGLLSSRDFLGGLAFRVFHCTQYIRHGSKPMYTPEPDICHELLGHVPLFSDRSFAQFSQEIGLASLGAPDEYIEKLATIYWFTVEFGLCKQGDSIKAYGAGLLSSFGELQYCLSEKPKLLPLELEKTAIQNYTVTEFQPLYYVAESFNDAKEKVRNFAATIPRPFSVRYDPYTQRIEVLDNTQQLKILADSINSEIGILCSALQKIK
Put plainly: Inhibition of human PAH by […] assay using L-Phe as substrate and 75 uM BH4 as cofactor.

Experiment [13] can be described thus: Binding affinity to Legionella pneumophila recombinant PAH by DSF assay.
Experiment [14] in a line: Uncompetitive inhibition of Legionella pneumophila recombinant PAH for enzyme-substrate complex by […] assay using L-Phe as substrate.
Experiment [15] in a line: Uncompetitive inhibition of Legionella pneumophila recombinant PAH for free enzyme by […] assay using L-Phe as substrate.
For experiment [16], the system named is Legionella pneumophila. Put plainly: Antibacterial activity against Legionella pneumophila 130b assessed as bacterial growth at 0.1 to 40 uM after 24 hrs by spectrometer. It counts as functional, organism-based.

Several values for one entry are separate records, joined by “and”; a condition that tells them apart may be missing. Identical values can stand only once. Activity calls are given as the source filed them. The rule behind the calls is not given here.

Regarding `CC(C)(C)c1ccc(C2C(C(=O)c3cccs3)=C(O)C(=O)N2c2nncs2)cc1` (configuration not stated), in the experiment on Legionella pneumophila [1], the Activity worked out at 4.2%.

Consider `c1ccc2c(c1)CSc1ccccc1C2n1ccnc1` (configuration not stated), for which the Activity in the experiment on Legionella pneumophila [1] came out at 1.6%.

For `O=c1cc(CO)oc(C(Nc2nccs2)c2ccc(F)cc2)c1O` (configuration not stated), the Activity with Legionella pneumophila [1] worked out at 0.1%.

As for `c1ccc(-c2cc(N3CCCCC3)c3ccccc3n2)nc1`, the Activity with Legionella pneumophila [1] came to 3.1%.

Turning to `c1ccc2c(c1)CSc1sccc1C2n1ccnc1` (configuration not stated), the Ki in [2] was determined as 1.7 µM; in experiment [3], 2 µM; in experiment [4], 4.1 µM; in [10], 2.2 µM. In addition, the result in the experiment with Legionella pneumophila [5], with Escherichia coli [6] and with Legionella pneumophila [9] was Active. Also, the Activity in the experiment on Legionella pneumophila [1] came to 0.38%; with Legionella pneumophila [7] it was 36%. Moreover, the outcome with Escherichia coli [8] and in the experiment on Legionella pneumophila [11] was inactive. In addition, in [12], the inhibition entry was “Active”. Besides, in experiment [13], the Kd came to 1.1 µM.

Take `S=C(NNC(=S)Nc1ccccc1)Nc1ccccc1`: the Activity in the experiment with Legionella pneumophila [1] was determined as 1.9%.

Turning to `Oc1cc(C(F)(F)F)nn1-c1nc2ccccc2s1`, in the experiment on Legionella pneumophila [1], the Activity was determined as 1.4%.

In the case of `Cc1nccn1C1c2ccccc2CSc2sccc21` (configuration not stated), in the experiment with Legionella pneumophila [1], the Activity was determined as 2.2%.

Regarding `O=C(O)c1cc([N+](=O)[O-])cc2c1-c1ccc([N+](=O)[O-])cc1/C2=N/O`, the Ki in experiment [2] was 1 µM; in experiment [3] it was 1 µM; in [14], 0.37 µM; in experiment [15], 20 µM. Further, the values for the Activity in the experiment on Legionella pneumophila [1] and in the experiment on Legionella pneumophila [7] were 0.1% and 39%, respectively. Also, the result with Legionella pneumophila [16] was Active.

Regarding `O=C(C1=C(O)C(=O)N(c2nncs2)C1c1ccc(Cl)cc1)c1cccs1` (configuration not stated), the Activity in the experiment with Legionella pneumophila [1] was 2.23%.

Turning to `O=C(C1=C(O)C(=O)N(Cc2ccco2)C1c1ccc(Oc2ccccc2)cc1)c1cccs1` (configuration not stated), the Activity in the experiment with Legionella pneumophila [1] turned out to be 1.53%.

As to `CN1CCN(c2cc(-c3ccccn3)nc3ccccc23)CC1`, in the experiment with Legionella pneumophila [1], the Activity came to 2.6%.

Take `c1ccc(-c2cc(N3CCOCC3)c3ccccc3n2)nc1`: in the experiment with Legionella pneumophila [1], the Activity is 4.9% and 2.6%.

For the compound `CC1(C)CC(=O)C2=C(C1)NC1=C(C(=O)CC(C)(C)C1)C2c1cnc[nH]1`, the Activity in the experiment with Legionella pneumophila [1] was 3.2%.

As usually defined, the Ki is a measure of affinity in units of concentration, obtained from inhibition or displacement. The term Kd denotes a measure of binding affinity in units of concentration.

(Values after ChEMBL document CHEMBL3632587, “Discovery of a Specific Inhibitor of Pyomelanin Synthesis in Legionella pneumophila” (J Med Chem, 2015).)
